Reference: patent publication US8295924B2, “Transdermal systems for the delivery of ionic agents directly to open wounds and surgically repaired incisions” (Teikoku Pharma USA, Inc., priority 2006, dated 2012)

Conditions: hairless rats, pad saturated with 4% lidocaine, 2 cm^2 delivery pad, 0.3 mA for 24 hours, active iontophoretic probe; for the entire 24-hour period
From the text: An incision was made in hairless rats, which was then sutured closed.

Question: Which “Concentration of lidocaine generated in the incision” value does the source give for CCN(CC)CC(=O)Nc1c(C)cccc1C [lidocaine] here?
Answer: sufficient to cause anesthesia
